What was measured:
[1] = target: T1, Bromodomain-containing protein 4 (Homo sapiens, UniProt O60885); experiment: Inhibition of BRD4 BD2 (unknown origin) by TR-FRET assay
[2] = target: T1, Bromodomain-containing protein 4; experiment: Inhibition of BRD4 BD1 (unknown origin) by TR-FRET assay

SMILES: CC(=O)N1CCC[C@@H](Cn2c(-c3cc(C)c(=O)n(C)c3)nc3ccccc32)C1
- IC50 [1]: 631 nM

SMILES: CC(=O)N1CCC[C@H](Cn2c(-c3cc(C)c(=O)n(C)c3)nc3ccccc32)C1
- IC50 [1]: 501 nM
- IC50 [2]: 31.6 nM

SMILES: CC(=O)N1CCC[C@@H](Cn2c(-c3cc(C)c(=O)n(C)c3)nc3cc(Br)ccc32)C1
- IC50 [1]: 501 nM
- IC50 [2]: 10 nM

Reference: ChEMBL document CHEMBL5375945, “Structure-Guided Design of a Domain-Selective Bromodomain and Extra Terminal N-Terminal Bromodomain Chemical Probe” (J Med Chem, 2023)
